The record followed here is US10662195B2, “Protein kinase conjugates and inhibitors” (Celgene Avilomics Research, Inc., priority 2009, dated 2020).

Where two headings read alike, the source gives them in different places.

One experiment deals with T1, FLT3 (Homo sapiens, UniProt P36888).
T1 construct: purchased PV3182
T1 sequence (P36888 27-993): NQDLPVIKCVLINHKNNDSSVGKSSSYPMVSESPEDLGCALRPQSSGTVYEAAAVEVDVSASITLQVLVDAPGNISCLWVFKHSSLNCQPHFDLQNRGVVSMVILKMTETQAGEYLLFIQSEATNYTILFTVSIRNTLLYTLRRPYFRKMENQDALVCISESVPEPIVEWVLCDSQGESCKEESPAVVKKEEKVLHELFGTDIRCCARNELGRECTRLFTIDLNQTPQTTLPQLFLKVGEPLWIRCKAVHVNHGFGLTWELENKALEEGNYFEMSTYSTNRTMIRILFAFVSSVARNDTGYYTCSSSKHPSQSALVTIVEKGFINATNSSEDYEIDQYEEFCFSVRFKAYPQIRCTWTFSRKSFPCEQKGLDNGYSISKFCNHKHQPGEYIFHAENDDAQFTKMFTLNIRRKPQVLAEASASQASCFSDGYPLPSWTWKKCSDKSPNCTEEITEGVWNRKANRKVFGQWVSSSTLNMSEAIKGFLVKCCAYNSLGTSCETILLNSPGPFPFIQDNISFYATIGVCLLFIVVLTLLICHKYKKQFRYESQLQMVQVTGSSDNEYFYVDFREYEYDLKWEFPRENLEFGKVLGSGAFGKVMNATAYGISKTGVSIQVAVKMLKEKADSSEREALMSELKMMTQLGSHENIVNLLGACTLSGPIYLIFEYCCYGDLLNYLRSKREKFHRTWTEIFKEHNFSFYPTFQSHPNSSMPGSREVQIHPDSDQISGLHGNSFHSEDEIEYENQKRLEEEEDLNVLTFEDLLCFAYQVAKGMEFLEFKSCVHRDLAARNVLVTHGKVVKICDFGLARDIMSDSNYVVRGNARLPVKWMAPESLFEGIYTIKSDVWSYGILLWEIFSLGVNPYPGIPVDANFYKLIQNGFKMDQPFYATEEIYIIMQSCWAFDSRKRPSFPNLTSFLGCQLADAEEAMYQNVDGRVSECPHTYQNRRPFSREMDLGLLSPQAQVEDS
The experiment in a line: FLT-3 Omnia continuous-read kinase assay. In kind it is biochemical. The procedure: (§1) A. KDR and FLT-3 Omnia Assay for Potency Assessment:
(§2) The protocol below describes a continuous-read kinase assay to measure inherent potency of Avila Therapeutics' compounds against active KDR and FLT-3 enzymes. The assay was performed substantially as described by the vendor (Invitrogen, Carlsbad, Calif.; http://www.invitrogen.com/content.cfm?pageid=11338.)
(§3) Briefly, 10× stocks of KDR from Invitrogen or BPS Bioscience (PV3660 or 40301) and FLT-3 (PV3182) enzymes, 1.13×ATP (AS001A) and Y9-Sox or Y12-Sox peptide substrates (KCZ1001) were prepared in 1× kinase reaction buffer consisting of 20 mM Tris, pH 7.5, 5 mM MgCl2, 1 mM EGTA, 5 mM β-glycerophosphate, 5% glycerol (10× stock, KB002A) and 0.2 mM DTT (DS001A). 5 μL of enzyme were pre-incubated in a Corning (#3574) 384-well, white, non-binding surface microtiter plate (Corning, N.Y.) for 30 min at 27° C. with a 0.5 μL volume of 50% DMSO and serially diluted compounds prepared in 50% DMSO. Kinase reactions were started with the addition of 45 μL of the ATP/Y9 or Y5-Sox peptide substrate mix and monitored every 30-90 seconds for 60 minutes at λex360/λem485 in a Synergy^4 plate reader from BioTek (Winooski, Vt.). At the conclusion of each assay, progress curves from each well were examined for linear reaction kinetics and fit statistics (R^2, 95% confidence interval, absolute sum of squares). Initial velocity (0 minutes to 20+ minutes) from each reaction was determined from the slope of a plot of relative fluorescence units vs time (minutes) and then plotted against inhibitor concentration to estimate IC50 from Log [Inhibitor] vs Response, Variable Slope model in GraphPad Prism from GraphPad Software (San Diego, Calif.).
[FLT-3]=15 nM, [ATP]=500 μM and [Y5-Sox peptide]=10 μM (ATP KMapp=470 μM)
(§4) The reported IC50_APP and IC50 values are in units of nM.

The target in another experiment is KDR (Homo sapiens, UniProt P35968). The experiment in a line: KDR Omnia continuous-read kinase assay. The class given is biochemical. Details: purchased Invitrogen or BPS Bioscience PV3660 or 40301. The procedure: as §1, §2
as §3, with “Calif.). […]” for “Calif.).”
as §4

The target in a further experiment is T2, PDGFRA (Homo sapiens, UniProt P16234).
T2 construct: purchased PV3811
The experiment is described as follows: Assay for PDGFRa (Omnia). The class given is biochemical. The procedure:
Briefly, 10× stock of PDGFRα (PV3811) enzyme, 1.13×ATP (AS001A) and Y12-Sox peptide substrates (KCZ1001) was prepared in 1× kinase reaction buffer consisting of 20 mM Tris, pH 7.5, 5 mM MgCl2, 1 mM EGTA, 5 mM β-glycerophosphate, 5% glycerol (10× stock, KB002A) and 0.2 mM DTT (DS001A). 5 μL of enzyme were pre-incubated in a Corning (#3574) 384-well, white, non-binding surface microtiter plate (Corning, N.Y.) for 30 min at 27° C. with a 0.5 μL volume of 50% DMSO and serially diluted compounds prepared in 50% DMSO. Kinase reactions were started with the addition of 45 μL of the ATP/Y9 or Y12-Sox peptide substrate mix and monitored every […] for 60 minutes at λex360/λem485 in a Synergy^4 plate reader from BioTek (Winooski, Vt.). At the conclusion of each assay, progress curves from each well were examined for linear reaction kinetics and fit statistics (R2, 95% confidence interval, absolute sum of squares). Initial velocity (0 minutes to 20+ minutes) from each reaction was determined from the slope of a plot of relative fluorescence units vs time (minutes) and then plotted against inhibitor concentration to estimate IC50 from log [Inhibitor] vs Response, Variable Slope model in GraphPad Prism from GraphPad Software (San Diego, Calif.).
[PDGFRα]=2-5 nM, [ATP]=60 μM and [Y9-Sox peptide]=10 μM (ATP KMapp=61 μM)
as §4

For experiment [1], the target named is CKIT (Homo sapiens, UniProt P10721). The experiment is described as follows: c-Kit Omnia kinase assay. In kind it is biochemical. As to conditions: reversible reference compounds; read-out: IC50 CKIT.
The target in a further experiment is CKIT D816V (Homo sapiens, UniProt P10721, D816V). The experiment in a line: c-Kit mutant Omnia kinase assay. The class given is biochemical. As to conditions: read-out: IC50_APP CKIT D816V.
The subject of experiment [2] is CKIT. The experiment in a line: cKIT washout assay in GIST882 cells (C-kit phosphorylation, western blot). In kind it is cell-based. As to conditions: 1 uM for 90 minutes, then washed free of compound. The procedure: GIST882 cells (See, Bauer et al., Cancer Research, 66(18):9153-9161 (2006)) were seeded in a 6 well plate at a density of 8×10^5 cells/well in complete media. The next day cells were treated with 1 uM compound diluted in complete media for 90 minutes. After 90 minutes, the media was removed and cells were washed with compound-free media. Cells were washed every 2 hours and resuspended in fresh compound-free media. Cells were collected at specified time points, lysed in Cell Extraction Buffer (Invitrogen FNN0011) supplemented with Roche complete protease inhibitor tablets (Roche 11697498001) and phosphatase inhibitors (Roche 04 906 837 001) and lysates were sheared by passing through a 28.5 gauge syringe 10 times each. Protein concentrations were measured and 10 ug total protein lysate was loaded in each lane. C-kit phosphorylation was assayed by western blot with pTyr (4G10) antibody and total kit antibody from Cell Signaling Technology.
Sorafenib and XVIII-11 were tested for cellular activity in a GIST882 cell line at 1 micromolar. The results are depicted in FIGS. 2a and 2b where it is shown that XVIII-11 maintained c-KIT enzyme inhibition in […] cells after “washout” for at least 8 hours. […] In order to understand whether there was a prolonged inhibition with the irreversible inhibitor the cells were washed free of compound. For the reversible inhibitor, Sorafenib, the inhibitory activity of cKIT and downstream signaling was overcome whereas the irreversible inhibition of XVIII-11 persisted for at least 8 hours.
Background: In western blotting, separated proteins are transferred to a membrane and probed.

[3] abbreviates: 30 min pre-incubation, [ATP]=500 μM, read-out: IC50_APP FLT3.
Setting [4] is: 30 min pre-incubation, read-out: IC50_APP KDR.
Setting [5] is: 30 min pre-incubation, [ATP]=60 μM, read-out: IC50_APP PDGFRA.

KDR, sequence (P35968 20-1356): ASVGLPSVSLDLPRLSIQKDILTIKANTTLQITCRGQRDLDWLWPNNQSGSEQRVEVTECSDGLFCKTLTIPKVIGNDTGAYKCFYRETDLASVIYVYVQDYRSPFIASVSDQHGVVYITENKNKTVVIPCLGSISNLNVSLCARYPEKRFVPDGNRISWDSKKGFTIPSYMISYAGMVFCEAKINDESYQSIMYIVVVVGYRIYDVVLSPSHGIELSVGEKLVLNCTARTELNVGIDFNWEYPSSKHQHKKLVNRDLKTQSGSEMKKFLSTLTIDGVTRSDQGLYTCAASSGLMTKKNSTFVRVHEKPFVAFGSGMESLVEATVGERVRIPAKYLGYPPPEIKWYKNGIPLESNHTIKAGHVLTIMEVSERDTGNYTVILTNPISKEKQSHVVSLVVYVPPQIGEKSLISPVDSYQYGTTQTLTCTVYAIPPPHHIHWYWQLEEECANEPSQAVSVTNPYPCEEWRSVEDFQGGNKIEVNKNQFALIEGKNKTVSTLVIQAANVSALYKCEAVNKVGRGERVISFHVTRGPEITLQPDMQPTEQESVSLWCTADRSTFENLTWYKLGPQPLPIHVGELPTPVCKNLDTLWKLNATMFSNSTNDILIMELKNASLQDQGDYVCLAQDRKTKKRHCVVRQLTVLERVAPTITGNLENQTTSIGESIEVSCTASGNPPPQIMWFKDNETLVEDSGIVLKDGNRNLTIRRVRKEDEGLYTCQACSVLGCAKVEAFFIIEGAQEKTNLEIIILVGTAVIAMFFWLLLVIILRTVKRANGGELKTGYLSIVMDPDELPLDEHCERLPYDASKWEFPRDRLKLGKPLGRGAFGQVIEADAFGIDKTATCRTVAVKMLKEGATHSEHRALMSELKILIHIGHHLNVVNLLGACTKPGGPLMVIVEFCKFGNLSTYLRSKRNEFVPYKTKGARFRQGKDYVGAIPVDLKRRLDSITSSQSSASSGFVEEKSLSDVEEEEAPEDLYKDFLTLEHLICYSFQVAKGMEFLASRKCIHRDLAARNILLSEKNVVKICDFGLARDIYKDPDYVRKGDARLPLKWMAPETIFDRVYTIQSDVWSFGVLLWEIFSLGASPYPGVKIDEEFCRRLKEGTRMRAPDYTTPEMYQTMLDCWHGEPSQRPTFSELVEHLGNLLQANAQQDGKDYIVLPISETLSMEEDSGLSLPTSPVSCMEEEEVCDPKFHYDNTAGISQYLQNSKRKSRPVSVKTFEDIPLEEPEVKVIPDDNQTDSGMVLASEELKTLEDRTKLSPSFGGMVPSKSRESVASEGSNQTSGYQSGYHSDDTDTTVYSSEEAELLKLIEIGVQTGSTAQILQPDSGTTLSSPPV
T2 sequence (P16234 24-1089): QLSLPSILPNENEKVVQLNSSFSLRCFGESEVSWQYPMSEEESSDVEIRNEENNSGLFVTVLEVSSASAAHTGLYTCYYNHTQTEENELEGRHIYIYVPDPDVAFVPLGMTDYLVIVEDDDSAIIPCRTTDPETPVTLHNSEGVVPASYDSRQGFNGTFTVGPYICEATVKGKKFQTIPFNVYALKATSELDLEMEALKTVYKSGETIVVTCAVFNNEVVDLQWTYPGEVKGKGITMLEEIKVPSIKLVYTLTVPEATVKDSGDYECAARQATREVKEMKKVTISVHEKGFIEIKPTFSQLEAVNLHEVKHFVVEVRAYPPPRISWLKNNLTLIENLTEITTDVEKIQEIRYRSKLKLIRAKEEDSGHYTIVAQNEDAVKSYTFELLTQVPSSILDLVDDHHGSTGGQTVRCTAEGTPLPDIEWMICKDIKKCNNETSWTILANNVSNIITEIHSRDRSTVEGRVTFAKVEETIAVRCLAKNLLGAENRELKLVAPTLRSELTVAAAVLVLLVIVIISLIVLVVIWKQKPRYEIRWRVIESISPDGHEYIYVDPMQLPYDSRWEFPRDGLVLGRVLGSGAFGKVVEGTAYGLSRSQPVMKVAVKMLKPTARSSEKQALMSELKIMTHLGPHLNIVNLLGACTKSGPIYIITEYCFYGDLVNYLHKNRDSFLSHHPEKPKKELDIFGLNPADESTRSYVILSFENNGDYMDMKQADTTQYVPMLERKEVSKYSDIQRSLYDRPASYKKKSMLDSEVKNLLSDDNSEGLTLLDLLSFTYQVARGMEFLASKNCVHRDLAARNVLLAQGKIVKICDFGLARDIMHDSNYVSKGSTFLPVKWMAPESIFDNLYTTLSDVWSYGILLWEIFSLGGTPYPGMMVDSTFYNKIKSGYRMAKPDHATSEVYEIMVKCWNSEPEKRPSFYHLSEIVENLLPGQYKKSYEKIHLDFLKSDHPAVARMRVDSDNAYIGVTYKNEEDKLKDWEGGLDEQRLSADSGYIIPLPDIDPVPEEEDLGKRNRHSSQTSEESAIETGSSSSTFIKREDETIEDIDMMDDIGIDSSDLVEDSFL
CKIT D816V, sequence (P10721 26-976 D816V): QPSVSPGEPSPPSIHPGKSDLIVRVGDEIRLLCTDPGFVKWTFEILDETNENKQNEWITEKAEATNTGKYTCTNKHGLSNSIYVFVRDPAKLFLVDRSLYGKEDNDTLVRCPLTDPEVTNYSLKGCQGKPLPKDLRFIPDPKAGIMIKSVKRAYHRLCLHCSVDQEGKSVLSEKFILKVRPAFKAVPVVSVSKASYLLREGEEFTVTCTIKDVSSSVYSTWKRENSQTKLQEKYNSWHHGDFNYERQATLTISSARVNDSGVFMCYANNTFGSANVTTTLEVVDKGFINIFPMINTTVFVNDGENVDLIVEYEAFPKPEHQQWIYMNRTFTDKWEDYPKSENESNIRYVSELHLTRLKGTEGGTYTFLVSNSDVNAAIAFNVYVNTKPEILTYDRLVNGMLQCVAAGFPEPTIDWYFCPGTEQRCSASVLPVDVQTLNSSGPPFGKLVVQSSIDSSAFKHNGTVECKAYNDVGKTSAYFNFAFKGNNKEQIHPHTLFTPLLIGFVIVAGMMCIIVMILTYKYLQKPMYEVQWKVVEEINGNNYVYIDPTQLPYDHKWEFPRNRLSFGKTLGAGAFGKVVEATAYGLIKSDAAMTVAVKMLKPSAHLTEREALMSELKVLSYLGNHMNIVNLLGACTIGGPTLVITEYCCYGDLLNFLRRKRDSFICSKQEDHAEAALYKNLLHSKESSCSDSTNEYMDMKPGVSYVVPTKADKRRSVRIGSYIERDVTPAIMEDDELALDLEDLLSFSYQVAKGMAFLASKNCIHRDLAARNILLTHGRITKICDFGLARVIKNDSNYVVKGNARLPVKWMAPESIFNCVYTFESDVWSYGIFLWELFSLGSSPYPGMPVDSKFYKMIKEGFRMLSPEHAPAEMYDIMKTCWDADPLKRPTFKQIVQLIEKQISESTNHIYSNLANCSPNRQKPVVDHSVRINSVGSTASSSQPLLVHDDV
CKIT (Homo sapiens, UniProt P10721), sequence (P10721 26-976): as the sequence (P10721 26-976 D816V) above, with V791D counted along it

For `CNC(=O)c1cc(Oc2ccc(NC(=O)Nc3ccc(NC(=O)C(C)Cl)c(C(F)(F)F)c3)cc2)ccn1` (centres unmarked) [XVIII-14, 4-(4-(3-(4-(2-Chloropropionamido)-3-(trifluoromethyl)phenyl)ureido)phenoxy)-N-methylpicolinamide], the IC50 at FLT3 (setting [3]) came to 107 nM; at KDR (setting [4]), 6.94 nM; on PDGFRA (setting [5]) it was 1.54 nM.
Take `CNC(=O)c1cc(Oc2ccc(NC(=O)Nc3ccc(NC(=O)CCl)c(C(F)(F)F)c3)cc2)ccn1` [XVIII-13, 4-(4-(3-(4-(2-Chloroacetamido)-3-(trifluoromethyl)phenyl)ureido)phenoxy)-N-methylpicolinamide]: the IC50 on FLT3 (setting [3]) was found to be 0.508 nM; at KDR (setting [4]) it was 0.95 nM; on PDGFRA (setting [5]) it was 0.508 nM.
Take `CCC(=O)Nc1ccc(NC(=O)Nc2ccc(Oc3ccnc(C(=O)NC)c3)cc2)cc1C(F)(F)F` [Reversible Reference Compound 3, 4-(4-(3-(4-(Propionamido)-3-(trifluoromethyl)phenyl)ureido)phenoxy)-N-methylpicolinamide, reference compound]: the IC50 worked out at 0.461 nM on FLT3 (reversible reference compounds, read-out: IC50 FLT3); 39.4 nM on KDR (reversible reference compounds, read-out: IC50 KDR); 16.3 nM at CKIT [1]; 4.15 nM at PDGFRA (reversible reference compounds, read-out: IC50 PDGFRA).
Regarding `C=CC(=O)Nc1ccc(NC(=O)Nc2ccc(Oc3ccnc(C(=O)NC)c3)cc2)cc1C(F)(F)F` [XVIII-11, 4-(4-(3-(4-Acrylamido-3-(trifluoromethyl)phenyl)ureido)phenoxy)-N-methylpicolinamide], the IC50 at CKIT D816V stood at 3.42 nM; on FLT3 (setting [3]) it was 1.99 nM; at KDR (setting [4]) it was 26.9 nM. Also, the “duration of c-KIT inhibition after washout” value in the experiment with CKIT [2] is listed as “at least 8 hours”.
